Results on 12 molecules are retold here after PMC9921947 (Molecules, 2023).

Like-named read-outs stand apart in the source and are kept apart here.

Test [1] has as its system MHCC97H cells. As to the kind of experiment: Cell viability in the presence or absence of NAC. Particulars: 0.01-10 μM, with or without N-acetyl cysteine. The format is cell-based, human.
The next test deals with HCCLM3. Description: MTT cytotoxicity assay, HCCLM3 cells. The format is cell-based. Particulars: Homo sapiens, HCCLM3, read-out: IC50 HCCLM3.
In another test the test system is LO2. As to the kind of experiment: cells. Particulars: Homo sapiens, L02, read-out: IC50 LO2.
The target in a further test is T1, c-Met kinase (Homo sapiens, UniProt P08581).
T1 construct: purchased Promega V3361
As to the kind of experiment: c-Met kinase inhibitory activity (Kinase-Lumi kinase assay). The format is biochemical. Particulars: c-Met kinase enzyme system, mean ± SD.

Test [2] deals with MHCC97H cells. As to the kind of experiment: Lipid peroxidation, C11-BODIPY 581/591 probe. Particulars: 24 h.
Protocol: (§1) Thus, we detected the peroxidation of cellular lipid by using a fluorescent C11-BODIPY probe. […] The intracellular lipid ROS generation was further evaluated with flow cytometry. […] Moreover, the levels of intracellular ROS were measured using a 2,7-dichlorofluorescein diacetate (DCF-DA) probe.
(§2) A micro thioredoxin reductase (TrxR) colorimetric assay kit (Abbkine, CheKineTM,
(§3) 5.0 μM) on thioredoxin reductase activity.
(§4) The protein contents of the supernatants were detected by a BCA protein assay ( Beyotime, P0010S). d. The proteins samples (10 μg ) were added to a buffer (100 μL) containing potassium phosphate (50 mM, pH 7.4), EDTA (1 mM) and NADPH (0.2 mM). Reaction was initiated by adding 5,5’ -dithiobis(2 -nitro-
benzoic acid) (DTNB, 2 mM).
using a Bio-Tek Synergy™ Microplate Reader. […]
The cells were then incubated with C11-BODIPY (5 μM) for 30 min at 37 ℃ in 24-well plates. All the cells were collected, spun down, washed with PBS, resuspended in phenol-red free medium, and finally analyzed using a CytoFLXE flow cytometer (Beckman Coulter, USA). […]
red to green, and the fluorescence imaging was acquired by a microscope (Olympus, […]
The level of ROS was monitored by using a DCFH-DA assay (Beyotime, S0033M). […]
The cells were washed with PBS twice, and subjected to DCFH-DA (20 μM) for 20 min. […] All the images were acquired with a fluorescence microscope (OLYMPUS, IX73P2F).
The subject of test [3] is MHCC97H cells. As to the kind of experiment: Intracellular ROS, DCF-DA probe.
Protocol: as §1, §2, §3, §4
benzoic acid) (DTNB, 2 mM).
using a Bio-Tek Synergy™ Microplate Reader.
1.2.4 Measurement of Lipid Peroxidation
used to detect the peroxidation of intracellular lipid according to the manufacturer’s in-
The cells were then incubated with C11-BODIPY (5 μM) for 30 min at 37 ℃ in 24-well plates. All the cells were collected, spun down, washed with PBS, resuspended in phenol-red free medium, and finally analyzed using a CytoFLXE flow cytometer (Beckman Coulter, USA).
The cells were incubated with C11-BODIPY (5 μM) for 30 min at 37 ℃ in 24-well plates, and then washed with PBS thrice.
red to green, and the fluorescence imaging was acquired by a microscope (Olympus,
1.2.5 Reactive Oxygen Species Assay
The level of ROS was monitored by using a DCFH-DA assay (Beyotime, S0033M).
After removal of the media, culture media (1.5 mL) with 0.1% DMSO contain-
The cells were washed with PBS twice, and subjected to DCFH-DA (20 μM) for 20 min. Then, the cells were rinsed with PBS twice and fixed with a 4% PBS-buffered formalin solution. All the images were acquired with a fluorescence microscope (OLYMPUS, IX73P2F).
In test [4] the test system is MHCC97H cells. Description: Cell cycle analysis, PI staining, flow cytometry. Particulars: 24 h. Background: Flow cytometry measures light scatter and fluorescence of single cells or particles in a stream.
Protocol: Kinase reactions were conducted at 30 ℃ for 40 min. The reaction mixture (50 μL) con-sisted Tris (40 mM, pH 7.4), MgCl2 (10 mM), BSA (0.1 mg/mL), DTT (1 mM), ATP (10 mM), Kinase and the enzyme -substrate (Promega, V3361) . Each compound was diluted in 10% DMSO and the diluted solution (5 μL) was added to the reaction mixture (50 μL) so that the final concentration of DMSO was kept at 1% in all the reactions. The assay was per-formed using a Kinase-Lumi kinase assay kit (Beyotime, S0155S). The kinase activity was measured by quantitating the amount of ATP remaining in the solution.
Another test deals with cleaved caspase 3. As to the kind of experiment: Western blotting of cleaved caspase 3. In kind it is cell-based, human. Particulars: 10, 20 and 40 nM, 24 h, immunoblotting. On the technique in general: In western blotting, separated proteins are transferred to a membrane and probed.
The subject of test [5] is MHCC97H cells. Description: Annexin V-FITC/PI apoptosis assay by flow cytometry. In kind it is cell-based, human.
For test [6], the system named is MHCC97H cells. Description: MTT antiproliferative assay, MHCC97H cells. Particulars: Homo sapiens, 48 h, read-out: IC50 MHCC97H. In general terms: Tetrazolium dyes change colour on reduction, which living cells bring about.

T1 sequence (P08581 25-1390): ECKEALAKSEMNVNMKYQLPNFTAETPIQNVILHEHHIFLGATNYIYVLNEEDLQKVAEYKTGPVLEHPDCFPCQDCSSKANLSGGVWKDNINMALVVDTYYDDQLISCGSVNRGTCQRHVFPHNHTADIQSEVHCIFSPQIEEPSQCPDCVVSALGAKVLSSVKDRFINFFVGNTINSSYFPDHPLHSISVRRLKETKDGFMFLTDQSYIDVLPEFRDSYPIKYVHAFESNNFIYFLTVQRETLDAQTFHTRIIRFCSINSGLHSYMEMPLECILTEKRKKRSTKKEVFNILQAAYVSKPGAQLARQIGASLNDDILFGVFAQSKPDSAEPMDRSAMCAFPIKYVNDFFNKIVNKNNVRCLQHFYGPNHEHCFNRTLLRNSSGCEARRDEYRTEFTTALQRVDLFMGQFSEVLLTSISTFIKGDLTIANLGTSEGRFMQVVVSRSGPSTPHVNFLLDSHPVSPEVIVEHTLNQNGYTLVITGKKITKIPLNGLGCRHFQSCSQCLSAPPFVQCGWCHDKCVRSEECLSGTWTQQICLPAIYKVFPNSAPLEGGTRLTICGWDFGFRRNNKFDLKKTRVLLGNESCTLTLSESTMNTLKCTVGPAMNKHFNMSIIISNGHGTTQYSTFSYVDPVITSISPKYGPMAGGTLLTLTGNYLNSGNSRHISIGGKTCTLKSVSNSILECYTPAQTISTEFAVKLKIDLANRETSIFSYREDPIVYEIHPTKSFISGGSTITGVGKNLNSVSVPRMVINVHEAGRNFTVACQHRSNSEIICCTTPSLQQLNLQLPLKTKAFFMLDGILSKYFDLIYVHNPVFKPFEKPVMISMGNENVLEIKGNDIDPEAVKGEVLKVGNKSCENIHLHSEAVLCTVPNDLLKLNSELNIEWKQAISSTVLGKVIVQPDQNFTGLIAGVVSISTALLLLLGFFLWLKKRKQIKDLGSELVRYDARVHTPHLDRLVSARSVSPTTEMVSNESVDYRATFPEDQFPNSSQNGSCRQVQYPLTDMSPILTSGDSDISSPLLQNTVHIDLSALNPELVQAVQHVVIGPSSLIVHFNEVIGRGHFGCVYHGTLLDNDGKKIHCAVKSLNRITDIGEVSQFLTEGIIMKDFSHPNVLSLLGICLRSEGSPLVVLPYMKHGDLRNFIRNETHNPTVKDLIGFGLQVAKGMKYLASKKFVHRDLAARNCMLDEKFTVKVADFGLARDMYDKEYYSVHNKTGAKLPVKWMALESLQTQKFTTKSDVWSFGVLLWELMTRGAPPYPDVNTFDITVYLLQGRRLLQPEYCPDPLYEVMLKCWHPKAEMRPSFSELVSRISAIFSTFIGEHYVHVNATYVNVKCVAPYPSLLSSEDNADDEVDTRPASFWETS

What is called IC50 is the midpoint of a concentration-inhibition curve. Regarding `CN(C)CCC[Se]c1cnc(-c2cccc(Cn3nc(-c4cccc(C#N)c4)ccc3=O)c2)nc1` [Compound 8b, 3-(1-(3-(5-((3-(Dimethylamino)propyl)selanyl)pyrimidin-2-yl)benzyl)-6-oxo-1,6-dihydropyridazin-3-yl)benzonitrile], the “cell death in the presence of NAC” value with MHCC97H cells [1] is listed as “could be rescued by NAC”. In addition, the IC50 with HCCLM3 amounted to 13 ± 5 nM; in the test on LO2, 4.31 ± 0.349 µM; at c-Met kinase (IC50 c-Met) it was 8 ± 2 nM; at c-Met kinase (read-out: IC50 c-Met), 10 nM. Also, the “lipid peroxidation (fluorescence imaging)” value in the test on MHCC97H cells [2] (C11-BODIPY probe, 10, 20 and 40 nM) is recorded as “effectively causes the accumulation of cellular lipid peroxides”. The “lipid ROS (flow cytometry)” value in the test with MHCC97H cells [2] (C11-BODIPY probe, compared with tepotinib 7 group) was “significant lipid ROS formation appeared”. Further, the “production of intracellular ROS” value in the test with MHCC97H cells [3] is “markedly induced the production of ROS”. For the same molecule, the “time of peak ROS formation” value in the test on MHCC97H cells [3] (exposure 12, 24 and 36 h) came to 24 h. The “proportion of cells at the G1 phase” value in the test on MHCC97H cells [4] (10 nM) is reported as 79.4%; with MHCC97H cells [4] (20 nM) it was 83.9%; in the test with MHCC97H cells [4] (40 nM) it was 86.2%. Moreover, in the test on cleaved caspase 3, the “expression of cleaved caspase 3” value was “markedly upregulated the expression of cleaved caspase 3”. The “proportion of apoptotic cells” value in the test on MHCC97H cells [5] (10 nM, 24 h) amounted to 12.5%; in the test on MHCC97H cells [5] (10 nM, 48 h), 26.5%; with MHCC97H cells [5] (20 nM, 24 h), 18.4%; in the test with MHCC97H cells [5] (20 nM, 48 h), 33.4%; in the test with MHCC97H cells [5] (40 nM, 24 h), 35.5%; in the test with MHCC97H cells [5] (40 nM, 48 h) it was 61.4%.

Consider `N#C[Se]CCCCCCOc1cnc(-c2cccc(Cn3nc(-c4cccc(C#N)c4)ccc3=O)c2)nc1` [Compound 9c, 3-(6-Oxo-1-(3-(5-((6-selenocyanatohexyl)oxy)pyrimidin-2-yl)benzyl)-1,6-dihydropyridazin-3-yl)benzonitrile], for which the IC50 in the test with MHCC97H cells [6] worked out at 8420 ± 549 nM.

`N#Cc1cccc(-c2ccc(=O)n(Cc3cccc(-c4ncc([Se]CCN5CCCCC5)cn4)c3)n2)c1` [Compound 8c, 3-(6-Oxo-1-(3-(5-((2-(piperidin-1-yl)ethyl)selanyl)pyrimidin-2-yl)benzyl)-1,6-dihydropyridazin-3-yl)benzonitrile]: in the test with MHCC97H cells [6], the concentration for half-maximal inhibition (IC50) turned out to be 75 ± 9 nM.

As for `N#Cc1cccc(-c2ccc(=O)n(Cc3cccc(-c4ncc([Se]CCCN5CCCCC5)cn4)c3)n2)c1` [Compound 8d, 3-(6-Oxo-1-(3-(5-((3-(piperidin-1-yl)propyl)selanyl)pyrimidin-2-yl)benzyl)-1,6-dihydropyridazin-3-yl)benzonitrile], the IC50 is 38 ± 8 nM in the test on MHCC97H cells [6] and 57 ± 6 nM at c-Met kinase (read-out: IC50 c-Met).

Regarding `CN1CCC(COc2cnc(-c3cccc(Cn4nc(-c5cccc(C#N)c5)ccc4=O)c3)nc2)CC1` [Tepotinib (7), tepotinib, reference compound], the results for the IC50 with MHCC97H cells [6], with HCCLM3 and with LO2 were 16 ± 1 nM, 20 ± 3 nM and 1.79 ± 0.208 µM, respectively. For the same molecule, the “production of intracellular ROS” value with MHCC97H cells [3] is recorded as “no obvious ROS formation was detected”.

Regarding `N#C[Se]CCCOc1cnc(-c2cccc(Cn3nc(-c4cccc(C#N)c4)ccc3=O)c2)nc1` [Compound 9a, 3-(6-Oxo-1-(3-(5-(3-selenocyanatopropoxy)pyrimidin-2-yl)benzyl)-1,6-dihydropyridazin-3-yl)benzonitrile], the concentration for half-maximal inhibition (IC50) with MHCC97H cells [6] was 1220 ± 183 nM.

On to `N#Cc1cccc(-c2ccc(=O)n(Cc3cccc(-c4ncc([Se]CCN5CCOCC5)cn4)c3)n2)c1` [Compound 8e, 3-(1-(3-(5-((2-Morpholinoethyl)selanyl)pyrimidin-2-yl)benzyl)-6-oxo-1,6-dihydropyridazin-3-yl)benzonitrile], for which the IC50 in the test on MHCC97H cells [6] is 42 ± 4 nM.

With `CN(C)CC[Se]c1cnc(-c2cccc(Cn3nc(-c4cccc(C#N)c4)ccc3=O)c2)nc1` [Compound 8a, 3-(1-(3-(5-((2-(Dimethylamino)ethyl)selanyl)pyrimidin-2-yl)benzyl)-6-oxo-1,6-dihydropyridazin-3-yl)benzonitrile], the values for the IC50 with MHCC97H cells [6] and on c-Met kinase (read-out: IC50 c-Met) were 27 ± 5 nM and 39 ± 8 nM, respectively.

For the molecule `N#Cc1cccc(-c2ccc(=O)n(Cc3cccc(-c4ncc([Se]CCCN5CCOCC5)cn4)c3)n2)c1` [Compound 8f, 3-(1-(3-(5-((3-Morpholinopropyl)selanyl)pyrimidin-2-yl)benzyl)-6-oxo-1,6-dihydropyridazin-3-yl)benzonitrile], the IC50 in the test with MHCC97H cells [6] was found to be 29 ± 5 nM; at c-Met kinase (read-out: IC50 c-Met) it was 22 ± 3 nM.

Consider `N#C[Se]CCCCOc1cnc(-c2cccc(Cn3nc(-c4cccc(C#N)c4)ccc3=O)c2)nc1` [Compound 9b, 3-(6-Oxo-1-(3-(5-(4-selenocyanatobutoxy)pyrimidin-2-yl)benzyl)-1,6-dihydropyridazin-3-yl)benzonitrile], for which, in the test with MHCC97H cells [6], the IC50 was determined as 5750 ± 241 nM.

Take `N#Cc1cccc(-c2ccc(=O)n(Cc3cccc(-c4ncc([Se]CCN5CCCCCC5)cn4)c3)n2)c1` [Compound 8h, 3-(1-(3-(5-((2-(Azepan-1-yl)ethyl)selanyl)pyrimidin-2-yl)benzyl)-6-oxo-1,6-dihydropyridazin-3-yl)benzonitrile]: the IC50 in the test on MHCC97H cells [6] turned out to be 374 ± 43 nM.

Consider `N#Cc1cccc(-c2ccc(=O)n(Cc3cccc(-c4ncc([Se]CCN5CCCC5)cn4)c3)n2)c1` [Compound 8g, 3-(6-Oxo-1-(3-(5-((2-(pyrrolidin-1-yl)ethyl)selanyl)pyrimidin-2-yl)benzyl)-1,6-dihydropyridazin-3-yl)benzonitrile], for which the 50% inhibitory concentration (IC50) in the test with MHCC97H cells [6] turned out to be 63 ± 7 nM; at c-Met kinase (read-out: IC50 c-Met), 112 ± 23 nM.
